{
  "source": "patent US12263155B2",
  "about": "“Combinations of monoamine oxidase inhibitors and serotonin receptor agonists and their therapeutic use” (Remedi, Inc., priority 2022, dated 2025)",
  "key": {"[1]": {"target": "T1, MAO-A from human brain striatum (Homo sapiens, UniProt P21397)", "T1 construct": "homogenates of a post-mortem sample of the human brain striatum, served as the source of MAO-A enzymatic activity; from tissue; host or cells: human brain striatum, post-mortem (P2 mitochondrial-enriched fraction)", "T1 sequence (P21397 1-527)": "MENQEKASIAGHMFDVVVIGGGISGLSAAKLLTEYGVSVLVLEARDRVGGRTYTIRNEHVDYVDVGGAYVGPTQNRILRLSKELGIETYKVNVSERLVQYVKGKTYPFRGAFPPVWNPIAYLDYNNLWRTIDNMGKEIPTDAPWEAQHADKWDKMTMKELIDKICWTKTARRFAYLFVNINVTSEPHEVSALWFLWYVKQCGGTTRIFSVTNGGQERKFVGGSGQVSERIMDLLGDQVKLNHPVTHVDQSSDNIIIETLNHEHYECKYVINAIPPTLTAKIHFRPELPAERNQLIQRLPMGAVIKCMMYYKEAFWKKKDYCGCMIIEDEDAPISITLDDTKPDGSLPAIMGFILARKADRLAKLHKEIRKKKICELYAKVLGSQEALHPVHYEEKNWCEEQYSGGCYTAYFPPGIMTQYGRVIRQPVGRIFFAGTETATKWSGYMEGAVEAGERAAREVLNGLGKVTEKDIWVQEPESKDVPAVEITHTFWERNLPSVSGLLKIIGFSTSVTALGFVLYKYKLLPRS", "assay": "Inhibitory kinetics of human brain striatum MAO-A", "format": "biochemical", "settings": "for Vmax: [14C]-5-HT substrate", "experimental": "Methods: The soluble extract of the mitochondrial enriched fraction (P2 pellet), which was prepared from homogenates of a post-mortem sample of the human brain striatum, served as the source of MAO-A enzymatic activity for this assay. After preparation, the P2 fraction was stored frozen until it was thawed for use on the day of assay. […] The MAO-A assay specificity was enhanced by inclusion of 0.1 μM deprenyl to prevent substrate oxidation by MAO-B. The CX157 competition for MAO-A activity was measured using either 1.0 nM or 5.0 nM CX157 against the 2 log unit concentration range of [^14C]-5-HT. The reference standard, RO 41-1049, was tested at 10 μM. Deprenyl (0.1 μM) was included in all MAO-A assays to prevent any potential for MAO-B mediated oxidation of the [^14C]-5-HT substrate. […] The MAO-A assays were performed using CX157 at concentrations of 0 nM (as a positive control), 1 nM and 5 nM. The Km and Vmax values were calculated from Lineweaver-Burke plots."}, "[2]": {"system": "69 binding sites in nine classes", "assay": "NovaScreen ligand-binding screen, other binding sites", "settings": "10.0 nM and 100 nM", "experimental": "Methods: Investigational drug candidates CX157 were analyzed in NovaScreen's bank of ligand-binding reactions to test for specificity. CX157 was screened at concentrations of both 10.0 nM and 100 nM as potential competitors in binding reactions involving nine classes containing 69 binding sites. The following binding reactions are tested: Adenosine Non-selective, Adrenergic Alpha 1 Non-selective, Adrenergic Alpha 2 Non-selective, Adrenergic Beta Non-selective, Dopamine Transporter, Dopamine Non-selective, GABA A Agonist Site, GABA A BDZ alpha 1 site, GABA B, Glutamate AMPA Site (Ionotropic), Glutamate Kainate Site (Ionotropic), Glutamate NMDA Agonist Site (Ionotropic), Glutamate NMDA Glycine (Stry-insens Site) (Ionotrophic), Glycine Strychnine-sensitive, Histamine H1, Histamine H2, Histamine H3, Melatonin Non-selective, Muscarinic M1 (hr), Muscarinic M2 (hr), Muscarinic Non-selective Central, Muscarinic Non-selective Peripheral, Nicotinic (α-BnTx insensitive) Neuronal, Norepinephrine Transporter, Opioid Non-selective, Orphanin (hr), Serotonin Transporter, Serotonin Non-selective, Sigma Non-selective, Estrogen, Testosterone (cytosolic), Calcium Channel Type L (Dihydropyridine Site), Calcium Channel Type N, Potassium Channel ATP-Sensitive, Potassium Channel Ca2+ Act. VI, Potassium Channel I[Kr]"}},
  "data": [
    {"smiles": "O=S1(=O)c2ccc(F)cc2Oc2cc(OCC(F)(F)F)ccc21", "note": "[CX157, 3-fluoro-7(2,2,2-trifluorethoxy)phenoxathiine-10,10-dioxide]", "values": [
      {"measurement": "increase of Km of the enzyme for [14C]-5-HT", "setting": "[1]; 5.0 nM CX157", "result": 34.6, "unit": "%"},
      {"measurement": "Vmax", "setting": "[1]; 1 nM CX157", "result": 50777},
      {"measurement": "Vmax", "setting": "[1]; 5 nM CX157", "result": 59161},
      {"measurement": "mode of MAO-A inhibition", "setting": "[1]; human brain striatum", "result": "competitive inhibitor"},
      {"measurement": "Ki", "setting": "[1]; human brain striatum homogenate, from plot of Km values", "result": 0.01, "unit": "µM"},
      {"measurement": "interactions with other binding sites in the screen", "setting": "[2]", "result": "no interactions"}
    ]}
  ]
}
